# Counter-ions that a name gives are not always drawn. Like-named read-outs stand apart in the source and are kept apart here.
# Columns and labels:
# [1] = Evaluation of hippocampal distribution in mouse; format: in vivo; conditions: male ICR mice, 10 mg/kg oral; for concentration at 0.5 h: 0.5 h after administration
# [2] = Evaluation of blood cell number in mouse; format: in vivo; conditions: male ICR mice, oral, repeated 7 or 9 days
# Protocol: All compounds were repeatedly administered to the mice at a dose of 1 mg/kg, 10 mg/kg or 100 mg/kg (body weight) for 7 or 9 days. One day after the final administration of the compound, the whole blood was collected.
# Using Sysmex XT-1800i (Sysmex Corporation), the white blood cell number, red blood cell number, and platelet number in the collected whole blood per unit volume were measured. The influence of each compound on each blood cell number was determined by calculating the number with the mean of each blood cell number of the mouse without administration of the compound (0 mg/kg group), and the mean of each blood cell number in the whole blood of a mouse with the administration of the compound.
# MAO-A enzyme = MAO-A enzyme (Homo sapiens (Human), UniProt P21397); experiment: Measurement of MAO-A inhibitory activity (MAO-Glo Assay); format: biochemical
# MAO-B enzyme = MAO-B enzyme (Homo sapiens (Human), UniProt P27338); experiment: Measurement of MAO-B inhibitory activity (MAO-Glo Assay); format: biochemical
# human LSD1(172-833) = human LSD1(172-833) (Homo sapiens (Human), UniProt O60341); experiment: Measurement of LSD1 inhibitory activity (time-resolved fluorescence, biotin-histone H3 mono methylated K4 peptide); format: biochemical; conditions: 60 min preincubation with enzyme at room temperature;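 further: after the compound–enzyme step, substrate reaction 5 min at room temperature in Tris-HCl pH 8.0 with BSA and DTT, halted by 2-PCPA, detected with europium anti-histone H3 antibody plus Streptavidin-XL665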
# [3] = male, ICR, mouse, hippocampus, po, 10 mg/kg, 1 h after administration, read-out: Concentration Hippocampus, Mean
# [4] = male, ICR, mouse, plasma, po, 10 mg/kg, 1 h after administration, read-out: Concentration Plasma, Mean
# [5] = 1 h after administration, sulfate
# Chain of MAO-A enzyme (P21397 whole entry): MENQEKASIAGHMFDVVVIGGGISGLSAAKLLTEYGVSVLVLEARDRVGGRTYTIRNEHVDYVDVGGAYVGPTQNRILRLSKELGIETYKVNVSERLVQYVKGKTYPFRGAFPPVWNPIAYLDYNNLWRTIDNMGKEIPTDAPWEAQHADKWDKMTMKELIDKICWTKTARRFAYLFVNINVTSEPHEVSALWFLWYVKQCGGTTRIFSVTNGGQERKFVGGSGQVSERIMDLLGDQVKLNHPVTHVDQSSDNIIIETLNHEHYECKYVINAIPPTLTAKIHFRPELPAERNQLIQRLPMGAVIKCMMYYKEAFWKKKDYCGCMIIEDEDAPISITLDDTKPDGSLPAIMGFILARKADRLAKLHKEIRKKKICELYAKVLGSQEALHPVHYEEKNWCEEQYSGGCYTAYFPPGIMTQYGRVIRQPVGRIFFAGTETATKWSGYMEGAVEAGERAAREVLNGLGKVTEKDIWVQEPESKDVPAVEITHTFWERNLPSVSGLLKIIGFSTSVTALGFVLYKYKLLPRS
# Chain of MAO-B enzyme (P27338 whole entry): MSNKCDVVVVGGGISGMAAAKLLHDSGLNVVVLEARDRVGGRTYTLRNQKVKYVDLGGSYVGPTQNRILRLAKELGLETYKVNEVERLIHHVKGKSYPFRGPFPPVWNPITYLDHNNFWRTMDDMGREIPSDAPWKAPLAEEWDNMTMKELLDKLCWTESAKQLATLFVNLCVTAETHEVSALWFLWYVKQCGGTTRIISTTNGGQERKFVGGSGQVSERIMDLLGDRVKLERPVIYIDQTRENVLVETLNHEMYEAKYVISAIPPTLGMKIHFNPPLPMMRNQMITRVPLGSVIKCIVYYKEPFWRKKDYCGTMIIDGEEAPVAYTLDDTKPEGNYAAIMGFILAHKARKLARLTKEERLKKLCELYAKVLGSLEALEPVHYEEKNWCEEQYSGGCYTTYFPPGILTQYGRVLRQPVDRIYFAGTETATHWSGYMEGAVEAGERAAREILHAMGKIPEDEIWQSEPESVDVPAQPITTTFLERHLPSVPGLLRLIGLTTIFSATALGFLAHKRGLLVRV
Compound,"concentration at 1 h [1, 3] [ng/g]","concentration at 1 h [1, 4] [ng/mL]","Platelets, Mean ([2]; 1 mg/kg)","Red blood cells, Mean ([2]; 1 mg/kg)","White blood cells, Mean ([2]; 1 mg/kg)","Platelets, Mean ([2]; 10 mg/kg)","Red blood cells, Mean ([2]; 10 mg/kg)","White blood cells, Mean ([2]; 10 mg/kg)","Platelets, Mean ([2]; 100 mg/kg)","Red blood cells, Mean ([2]; 100 mg/kg)","White blood cells, Mean ([2]; 100 mg/kg)",IC50 (MAO-A enzyme) [µM],IC50 (MAO-B enzyme) [µM],IC50 (human LSD1(172-833)) [µM],also measured
"O=C(NC1CCOCC1)c1csc([C@@H]2C[C@H]2NCC2CC2)c1 [Example 71, 5-((1R,2R)-2-((cyclopropylmethyl)amino)cyclopropyl)-N-(tetrahydro-2H-pyran-4-yl)thiophene-3-carboxamide hydrochloride]",82,229,1178 10^3 cells,873 10^4 cells,275 10 cells,1197 10^3 cells,817 10^4 cells,276 10 cells,1322 10^3 cells,853 10^4 cells,323 10 cells,–,–,–,–
"Cc1nnc(NC(=O)c2cc([C@@H]3C[C@H]3NCC3CC3)cs2)s1 [Example 82, 4-((1S,2R)-2-((cyclopropylmethyl)amino)cyclopropyl)-N-(5-methyl-1,3,4-thiadiazol-2-yl)thiophene-2-carboxamide dihydrochloride]",170,1330,1399 10^3 cells,899 10^4 cells,403 10 cells,1445 10^3 cells,926 10^4 cells,424 10 cells,1411 10^3 cells,903 10^4 cells,329 10 cells,–,–,–,–
"Cc1nnc(NC(=O)c2cc([C@@H]3C[C@H]3NCC3CCOCC3)c(C)s2)s1 [Example 97, 5-methyl-N-(5-methyl-1,3,4-thiadiazol-2-yl)-4-((1S,2R)-2-((tetrahydro-2H-pyran-4-ylmethyl)amino)cyclopropyl)thiophene-2-carboxamide hydrochloride]",194,978,1462 10^3 cells,902 10^4 cells,377 10 cells,1483 10^3 cells,890 10^4 cells,366 10 cells,1533 10^3 cells,929 10^4 cells,332 10 cells,–,–,–,–
"O=C(O)c1ccc(CN2CCC(CN[C@@H]3C[C@H]3c3cc(C(=O)NC4CCC(F)(F)CC4)cs3)CC2)cc1 [Example 101, 4-((4-((((1R,2R)-2-(4-((4,4-difluorocyclohexyl)carbamoyl)-2-thienyl)cyclopropyl)amino)methyl)piperidin-1-yl)methyl)benzoic acid dihydrochloride]",–,–,–,–,–,–,–,–,–,–,–,> 100,> 100,< 0.1,–
"O=C(O)c1ccc(CN[C@@H]2C[C@H]2c2cc(C(=O)NC3CCC(F)(F)CC3)cs2)cc1 [Example 110, 4-((((1R,2R)-2-(4-((4,4-difluorocyclohexyl)carbamoyl)-2-thienyl)cyclopropyl)amino)methyl)benzoic acid]",–,–,–,–,–,–,–,–,–,–,–,49,> 100,< 0.1,–
"O=C(NC1CCOCC1)c1csc([C@@H]2C[C@H]2NCC2CCC2)c1 [Example 112, 5-((1R,2R)-2-((cyclobutylmethyl)amino)cyclopropyl)-N-(tetrahydro-2H-pyran-4-yl)thiophene-3-carboxamide]",–,–,–,–,–,–,–,–,–,–,–,> 100,> 100,< 0.1,–
"Cc1nnc(NC(=O)c2cc([C@@H]3C[C@H]3NC3CCC3)cs2)s1 [Example 118, 4-((1S,2R)-2-(cyclobutylamino)cyclopropyl)-N-(5-methyl-1,3,4-thiadiazol-2-yl)thiophene-2-carboxamide sulfate]",–,–,–,–,–,–,–,–,–,–,–,–,–,–,"Concentration Hippocampus, Mean [1, 5]: 0.151 µg/g; Concentration Plasma, Mean [1, 5]: 405 ng/mL; Platelets, Mean ([2]; 1 mg/kg, sulfate): 1051 10^3 cells; Red blood cells, Mean ([2]; 1 mg/kg, sulfate): 853 10^4 cells; White blood cells, Mean ([2]; 1 mg/kg, sulfate): 299 10 cells; Platelets, Mean ([2]; 10 mg/kg, sulfate): 1158 10^3 cells; Red blood cells, Mean ([2]; 10 mg/kg, sulfate): 907 10^4 cells; White blood cells, Mean ([2]; 10 mg/kg, sulfate): 312 10 cells; Platelets, Mean ([2]; 100 mg/kg, sulfate): 1176 10^3 cells; Red blood cells, Mean ([2]; 100 mg/kg, sulfate): 881 10^4 cells; White blood cells, Mean ([2]; 100 mg/kg, sulfate): 245 10 cells"
"Cc1sc(C(=O)Nc2cnn(C)c2)cc1[C@@H]1C[C@H]1NC1CCC1 [Example 123, 4-((1S,2R)-2-(cyclobutylamino)cyclopropyl)-5-methyl-N-(1-methyl-1H-pyrazol-4-yl)thiophene-2-carboxamide hydrochloride]",–,–,–,–,–,–,–,–,1333 10^3 cells,866 10^4 cells,380 10 cells,–,–,–,"concentration at 0.5 h ([1]; male, ICR, mouse, hippocampus, po, 10 mg/kg, read-out: Concentration Hippocampus, Mean): 369 ng/g; concentration at 0.5 h ([1]; male, ICR, mouse, plasma, po, 10 mg/kg, read-out: Concentration Plasma, Mean): 1110 ng/mL; Platelets, Mean ([2]; 1 mg/kg, hydrochloride): 1086 10^3 cells; Red blood cells, Mean ([2]; 1 mg/kg, hydrochloride): 846 10^4 cells; White blood cells, Mean ([2]; 1 mg/kg, hydrochloride): 390 10 cells; Platelets, Mean ([2]; 10 mg/kg, hydrochloride): 1234 10^3 cells; Red blood cells, Mean ([2]; 10 mg/kg, hydrochloride): 854 10^4 cells; White blood cells, Mean ([2]; 10 mg/kg, hydrochloride): 368 10 cells"

# Further lines, with some results ahead:
"concentration at 1 h [1, 3] [ng/g]","concentration at 1 h [1, 4] [ng/mL]","Platelets, Mean ([2]; 1 mg/kg)","Red blood cells, Mean ([2]; 1 mg/kg)","White blood cells, Mean ([2]; 1 mg/kg)","Platelets, Mean ([2]; 10 mg/kg)","Red blood cells, Mean ([2]; 10 mg/kg)","White blood cells, Mean ([2]; 10 mg/kg)","Platelets, Mean ([2]; 100 mg/kg)","Red blood cells, Mean ([2]; 100 mg/kg)","White blood cells, Mean ([2]; 100 mg/kg)",IC50 (MAO-A enzyme) [µM],IC50 (MAO-B enzyme) [µM],IC50 (human LSD1(172-833)) [µM],Compound,also measured
177,523,–,–,–,–,–,–,–,–,–,–,–,–,"Cc1nnc(NC(=O)c2cc([C@@H]3C[C@H]3NC3CCC3)cs2)s1 [Example 84, 4-((1S,2R)-2-(cyclobutylamino)cyclopropyl)-N-(5-methyl-1,3,4-thiadiazol-2-yl)thiophene-2-carboxamide dihydrochloride]","Kp at 1 h ([1]; male, ICR, mouse, hippocampus/plasma, po, 10 mg/kg, 1 h after administration, read-out: Ratio (hippocampus/plasma), Mean): 0.339; Platelets, Mean ([2]; 1 mg/kg, dihydrochloride): 1533 10^3 cells; Red blood cells, Mean ([2]; 1 mg/kg, dihydrochloride): 910 10^4 cells; White blood cells, Mean ([2]; 1 mg/kg, dihydrochloride): 370 10 cells; Platelets, Mean ([2]; 10 mg/kg, dihydrochloride): 1627 10^3 cells; Red blood cells, Mean ([2]; 10 mg/kg, dihydrochloride): 880 10^4 cells; White blood cells, Mean ([2]; 10 mg/kg, dihydrochloride): 339 10 cells; Platelets, Mean ([2]; 100 mg/kg, dihydrochloride): 1665 10^3 cells; Red blood cells, Mean ([2]; 100 mg/kg, dihydrochloride): 900 10^4 cells; White blood cells, Mean ([2]; 100 mg/kg, dihydrochloride): 313 10 cells"
640,2950,1442 10^3 cells,892 10^4 cells,399 10 cells,1380 10^3 cells,915 10^4 cells,378 10 cells,1519 10^3 cells,876 10^4 cells,347 10 cells,–,–,–,"Cc1nnc(NC(=O)c2cc([C@@H]3C[C@H]3NC3CCC3)c(C)s2)s1 [Example 99, 4-((1S,2R)-2-(cyclobutylamino)cyclopropyl)-5-methyl-N-(5-methyl-1,3,4-thiadiazol-2-yl)thiophene-2-carboxamide hydrochloride]",–
